Here are results for 3 molecules from PMC10620940 (ACS Omega, 2023).

Like-named read-outs stand apart in the source and are kept apart here.

Data set [1] deals with SARS-CoV-2. The settings on record: A549 + ACE2 cells, pretreatment; cited from earlier work.
In a further data set the test system is SARS-CoV-2 PL^pro. Conditions: in vitro SARS-CoV-2 PL^pro; cited from earlier work.
Data set [2] deals with SARS-CoV-2 strain BetaCoV/France/IDF0372/2020. Briefly: microbe, parasite or virus in culture. Conditions: Severe acute respiratory syndrome coronavirus 2, U2OS.
For data set [3], the system named is SARS-CoV-2. Conditions: SARS-CoV-2-infected mice; cited from earlier work.
The next data set can be described thus: in vitro. Conditions: human, CC50, U2-OS ACE2 GFP cells.
The subject of data set [4] is SARS-CoV-2. The settings on record: cited from earlier work.

As to `COc1ccc2nc3cc(Cl)ccc3c(Nc3cc(CN4CCCC4)c(O)c(CN4CCCC4)c3)c2n1` [7g, pyronaridine], the IC50 was 230 nM with SARS-CoV-2 [1], 1800 nM in the data set with SARS-CoV-2 PL^pro and 420 nM in data set [2]. Moreover, the “viral load in the lungs” value in the data set with SARS-CoV-2 [3] is listed as “reduces viral load”. Also, the CC50 in the data set “in vitro” is 4700 nM.

Turning to `CCN(CC)CCCC(C)Nc1c2ccc(Cl)cc2nc2ccc(OC)cc12` (centres unmarked) [quinacrine], the IC50 was 190 nM with SARS-CoV-2 [1] and 2570 nM in data set [2].

As to `CCC(CC)COC(=O)[C@H](C)N[P@](=O)(OC[C@H]1O[C@@](C#N)(c2ccc3c(N)ncnn23)[C@H](O)[C@@H]1O)Oc1ccccc1` [remdesivir], the IC50 in the data set with SARS-CoV-2 [4] is 20 to 50 nM.
